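Cells were grown in 96-well plates and exposed to each compound for 48 hours at five concentrations; endpoints were interpolated linearly between bracketing concentrations, or set to the highest concentration if not reached. GI50 is the concentration that inhibits growth by half. TGI denotes the concentration required for complete inhibition of growth.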
Legend:
Assay in all cases: NCI-60 cell line screen, 48 h
SW-620 colon = system: SW-620 colon
EKVX NSCLC = system: EKVX NSCLC
SNB-19 CNS = system: SNB-19 CNS
IGROV1 ovarian = system: IGROV1 ovarian
SN12C renal = system: SN12C renal
SK-MEL-2 melanoma = system: SK-MEL-2 melanoma
TK-10 renal = system: TK-10 renal
OVCAR-5 ovarian = system: OVCAR-5 ovarian
MCF7 breast = system: MCF7 breast
HL-60(TB) leukemia = system: HL-60(TB) leukemia
A549 NSCLC = system: A549 NSCLC
SF-539 CNS = system: SF-539 CNS
A498 renal = system: A498 renal
CAKI-1 renal = system: CAKI-1 renal

SMILES | TGI (SW-620 colon) | TGI (EKVX NSCLC) | TGI (SNB-19 CNS) | TGI (IGROV1 ovarian) | TGI (SN12C renal) | TGI (SK-MEL-2 melanoma) | TGI (TK-10 renal) | TGI (OVCAR-5 ovarian) | TGI (MCF7 breast) | TGI (HL-60(TB) leukemia) | TGI (A549 NSCLC) | GI50 (SF-539 CNS) | TGI (SF-539 CNS) | TGI (A498 renal) | TGI (CAKI-1 renal)
CSc1ccc(/C=C2\N=C(c3ccccc3)N(c3nc4ccc(Sc5ccccc5)cc4[nH]3)C2=O)cc1 | 52.5 µM | > 100 µM | > 89.2 µM | > 100 µM | > 84.2 µM | 37 µM | 60.8 µM | 83.7 µM | 45.9 µM | 49.4 µM | > 97.2 µM | 15 µM | 32.5 µM | 62 µM | > 94 µM
C1=C\CCCCN2C[C@H]3CCCC/C=C\CCCCN4CC[C@@H]([C@H](CCCCCC/1)C4)[C@H](C3)C2 | 6.71 µM | 22.5 µM | 5.3 µM | 11.3 µM | 22.9 µM | 4.56 µM | 5.8 µM | 21.4 µM | 4.5 µM | 12.1 µM | 6.95 µM |  | 3.9 µM | 17.4 µM | 5.6 µM
Cc1ccc(Nc2cc(=O)[nH]c(=S)[nH]2)cc1 | > 100 µM | > 100 µM | > 100 µM | > 100 µM | > 100 µM | > 100 µM | > 100 µM | > 100 µM | > 100 µM | > 100 µM | > 100 µM |  | > 100 µM | > 100 µM | > 100 µM
CC[C@@H](/C=C\CCC1(C[C@H](O)CCC=C(C)C)OCCO1)O[Si](C(C)C)(C(C)C)C(C)C | 73.9 µM | 60.2 µM | 33.8 µM | 42.1 µM | 32.8 µM | 30.7 µM | 39.3 µM | 38.5 µM | 32 µM | 38.4 µM | > 100 µM |  | 34.8 µM | 81.3 µM | 87.1 µM
CC(C)C1OC(=O)/C=C/C=C/C=C/C=C/C=C/CC(O)CC(O)CC(O)CC(O)CC(O)CC(O)CC(O)CC(O)/C=C/C1C (configuration not stated) | > 100 µM | > 100 µM | > 100 µM | > 100 µM | > 100 µM | > 100 µM | > 100 µM | > 100 µM | > 100 µM | > 100 µM | > 100 µM |  | > 100 µM | > 100 µM | > 100 µM
C=CC[C@H]1[C@H](O[Si](C)(C)C(C)(C)C)C=CC(=O)[C@@H]1CC(=O)N(Cc1ccccc1)Cc1ccccc1 | > 100 µM | > 100 µM | > 100 µM | > 100 µM | 90.4 µM | 38.3 µM | 85.6 µM | > 100 µM | > 100 µM | 36.5 µM | > 100 µM |  | > 100 µM | > 100 µM | 90.2 µM
CN(C)c1ccc(/C=C/C=C(/C#N)c2ccccc2)cc1 | 72.5 µM | > 100 µM | > 88.1 µM | > 100 µM | > 100 µM | > 93 µM | > 100 µM | > 100 µM | > 87.9 µM | 33 µM | > 100 µM |  | 64.7 µM | 98.5 µM | > 100 µM
Brc1ccc2[nH]cc(-c3nc(-c4c[nH]c5ccccc45)cs3)c2c1 | 13.3 µM | 12.3 µM | 12.2 µM | 8.75 µM | 13.9 µM | 8.43 µM | 10.5 µM | 5.37 µM | > 100 µM | 16.1 µM | 15.8 µM |  | 10.8 µM | 8.47 µM | 8.2 µM
N#CC1(C#N)NC(c2ccsc2)C(C#N)(C#N)NC1c1ccsc1 (configuration not stated) | > 100 µM | > 100 µM | > 100 µM | > 100 µM | > 100 µM | > 100 µM | > 100 µM | > 100 µM | > 100 µM | > 100 µM | > 100 µM |  | > 100 µM | > 100 µM | > 100 µM
O=[N+]([O-])c1ccc2nc(/C=C(\O)c3ccc(F)cc3)c(/C=C(\O)c3ccc(F)cc3)nc2c1 | > 100 µM | > 100 µM | > 100 µM | > 100 µM | > 100 µM | 45.2 µM | 34.2 µM | > 100 µM | > 100 µM | 55.7 µM | > 100 µM |  | 56.3 µM | 52.3 µM | > 100 µM
COc1cc2c(cc1OC)CC(N=[N+]=[N-])c1cc(OC)c(OC)cc1/C=C\2 (configuration not stated) | > 100 µM | > 100 µM | > 100 µM | > 100 µM | > 100 µM | > 100 µM | > 100 µM | > 100 µM | > 100 µM | > 100 µM | > 100 µM |  | > 100 µM | > 100 µM | 95.3 µM
S=c1[nH]c(=S)c2cc(Sc3ccc4[nH]c(=S)[nH]c(=S)c4c3)ccc2[nH]1 | > 100 µM | > 100 µM | 78.2 µM | 86.8 µM | > 100 µM | > 100 µM | 67.7 µM | > 100 µM | > 100 µM | 62.8 µM | > 100 µM |  | 82.8 µM | 44 µM | 83.7 µM
COCCOCCOC1=C(Cl)C(=O)c2c(O)ccc(O)c2C1=O | 0.562 µM | 21.7 µM | 27.1 µM | 7.37 µM | 3.7 µM | 4.86 µM | 3.25 µM | 22.6 µM | 4.62 µM | 1.89 µM | 25.5 µM |  | 3.69 µM | 13.9 µM | 3.17 µM
COC(=O)/C=c1/c2ccccc2n2nc3ccccc3c12 | > 100 µM | > 100 µM | > 100 µM | > 100 µM | > 100 µM | > 100 µM | > 100 µM | > 100 µM | > 100 µM | > 100 µM | > 100 µM |  | > 100 µM | 93.3 µM | > 100 µM
CNC(=S)N/N=C/c1cccc(C)n1 | > 100 µM | > 100 µM | > 100 µM | > 100 µM | 64.1 µM | > 100 µM | > 100 µM | > 100 µM | > 100 µM | > 75.9 µM | > 100 µM |  | 39.7 µM | > 71 µM | > 100 µM
CC1(C)N=C(N)N=C(N)N1c1cccc(OCCOc2ccc([N+](=O)[O-])cc2)c1 | > 100 µM | > 100 µM | > 100 µM | > 100 µM | > 100 µM | > 100 µM | > 100 µM | > 100 µM | > 100 µM | > 100 µM | > 100 µM |  | > 100 µM | > 100 µM | > 100 µM
COc1ccc(N=C(Nc2ccc(OC)cc2)C(=Nc2ccc(OC)cc2)Nc2ccc(OC)cc2)cc1 | > 100 µM | > 100 µM | > 100 µM | > 100 µM | > 100 µM | > 100 µM | > 100 µM | > 100 µM | > 100 µM | > 100 µM | > 100 µM |  | > 100 µM | > 100 µM | > 100 µM
CC12Cc3cc4c(cc3C1(c1ccc([N+](=O)[O-])cc1)OCCO2)OCO4 (configuration not stated) | > 100 µM | > 100 µM | 73.2 µM | 85.1 µM | > 100 µM | > 100 µM | > 100 µM | > 100 µM | > 100 µM | > 100 µM | > 100 µM |  | > 100 µM | > 100 µM | > 100 µM
c1ccc(-c2nn(-c3ccccc3)[n+](-c3ccccc3)n2)cc1 | > 100 µM | > 43 µM | > 100 µM | > 100 µM | > 100 µM | > 80.1 µM | > 88 µM | > 100 µM | 25.9 µM | 6.47 µM | > 100 µM |  | > 100 µM | > 100 µM | > 100 µM
